The text below walks through data of publication PMC9573605, “Exploring Nitric Oxide (NO)-Releasing Celecoxib Derivatives as Modulators of Radioresponse in Pheochromocytoma Cells” (Molecules, 2022).

A short description of this data set: Conversion in NO-assay buffer followed by UPLC. It is filed as physicochemical. The settings on record: 37 °C. As for the experimental part: The time-dependent degradation behavior of compounds 4f, 5a–f, and 6a–d as well as celecoxib was followed by UPLC analysis over a time course of 8 days (Figure 4). For that, compounds were incubated at 37 °C in the presence or absence of cysteine in the assay buffer used for the Griess assay. Samples were withdrawn at distinct time points (1, 5, 23, 47, 70, and 191 h), diluted into a mixture of acetonitrile/water, and analyzed.
The time-dependent conversion of NO-COXIBs 5a–f and 6a–d as well as reference compounds 4f and celecoxib in the presence or absence of cysteine in assay buffer was investigated by following the degradation of intact compound and identification of selected degradation products by UPLC. For that, samples were incubated at 37 °C in the assay buffer in the presence or absence of cysteine and at the indicated time point; 5 µL assay buffer of each sample was withdrawn and diluted with 45 µL MeCN/water (50/50 v/v). The samples were thoroughly vortexed and then subjected to UPLC analysis. All samples of one time point were analyzed within a total analysis time of approximately 2.5 h. Conversion was monitored at 254 nm using the following UPLC system: column Aquity UPLC® HSS C18 column (Waters Corporation, Milford, MA, USA; 100 × 2.1 mm, 1.8 µm, 130 Å), UPLC H-Class (Waters Corporation, Milford, MA, USA): quaternary gradient pump QSM, autosampler FTN, column heater CHA, and diode array detector PDAeλ, γ detector Gabi Star (Raytest Isotopenmeßgeräte GmbH, Straubenhardt, Germany), flow rate 0.4 mL/min, eluent: (A): 0.1% acetic acid in MeCN/MeOH 1/1/(B): 0.1% acetic acid in H2O; gradient: t0min 45/55–t0.5min 45/55–t5.5min 95/5–t7.0min 95/5–t7.2min 45/55–t8.5min 45/55). For the identification of degradation products, samples taken after 24 h were additionally subjected to HPLC-HRMS analysis using HPLC system 6. In brief, the NO-COXIBs were converted to the respective hydroxymethyl-substituted compounds and in the presence of cysteine additionally to the cysteine adduct, which could be identified by the respective Δm/z shifts. A detailed comparison of calculated and found m/z-signals is given in Supplementary Material Table S1, and copies of HPLC-HRMS chromatograms and selected spectra are given in Supplementary Material Figures S56–S66.

`Cc1ccc(-c2c(Cl)c(CO[N+](=O)[O-])nn2-c2ccc(S(C)(=O)=O)cc2)cc1` [5c, {4-Chloro-1-[4-(methylsulfonyl)phenyl]-5-(p-tolyl)-1H-pyrazol-3-yl}methyl nitrate] showed an intact compound (after 8 days (192 h)) of 57%.

For the compound `CCC(=O)NS(=O)(=O)c1ccc(-n2nc(CO[N+](=O)[O-])cc2-c2ccc(OC)cc2)cc1` [6d, {5-(4-Methoxyphenyl)-1-[4-(N-propionylsulfamoyl)phenyl]-1H-pyrazol-3-yl}methyl nitrate], the intact compound entry is reported as “consumed” (after 70 h, absence of cysteine) and “quantitatively consumed” (after 70 h, presence of cysteine).
